We go through 65 molecules from PubChem BioAssay AID449750 (Broad Institute, 2010).

Active and inactive are the calls of the source. No rule for the calls is given here.

A short description of the experiment: non-covalent RecA intein splicing inhibitors, dose response, biochemical, cell-free, fluorescence, secondary screen (AID 449750).

Take `Cc1ccc(C(=O)C(OC(=O)CN2C(=O)c3ccccc3C2=O)c2ccccc2)cc1C` (stereo not given): the AC50 (usually the concentration at which the activity in the assay is half-maximal) was > 38 µM (inactive).

Regarding `CCN(CC)S(=O)(=O)c1cc(NC(=O)Cn2ncc(Cl)c(Cl)c2=O)ccc1C`, the AC50 is 38.7 µM. Under `COc1ccc(CN(C(=O)CSc2nnc(-c3ccccc3C)o2)c2ccc(F)cc2)cc1` stands 21.9 µM; under `COc1ccc(NC(=O)/C(C#N)=C/c2ncc([N+](=O)[O-])n2C)c(OC)c1`, > 38 µM (inactive). Under `CCOC(=O)c1c(C)oc2c1c1c(c3ccccc32)OCN(CCCC(=O)O)C1` stands 4.93 µM; under `O=C1/C(=C\c2cccc(O)c2O)SC(=S)N1Cc1ccccc1`, > 38 µM (inactive); under `Oc1cccc(Nc2nc(-c3ccccc3Cl)nc3ccccc23)c1`, > 38 µM (inactive).

For the molecule `O=C(O)COc1cccc(/C=C2/SC(=S)N(Cc3ccccc3)C2=O)c1`, the AC50 was 21.5 µM. Under `CCOc1cc(/C=N\NC(=O)OC(C)(C)C)ccc1OC(=O)c1ccco1` stands > 38 µM (inactive); under `COC(=O)c1sc(-c2ccc(Cl)cc2)cc1NC(=O)/C=C/C(=O)O`, 9.69 µM. The value for `O=[N+]([O-])/C(C(Cl)=C(Cl)Cl)=C(/Sc1ccccc1)N1CCCCC1` was > 38 µM (inactive). Under `O=c1cc(-c2ccc(Cl)c(Cl)c2)[nH][nH]1` stands 8.07 µM; under `O=C(Nc1ccccc1N(C(=O)c1ccco1)S(=O)(=O)c1cccs1)c1ccco1`, 23.1 µM.

Consider `O=C1CCCC2=C1C1(O)C(=O)c3ccccc3C1(O)O2` (stereo not given), for which the AC50 was 7.79 µM. Under `CCOC(=O)c1c(CSC(=N)N)n(-c2ccccc2)c2cc(Br)c(OC(C)=O)cc12` stands 23.6 µM; under `CN(C)CCSc1nnc2[nH]c3ccccc3c2n1`, > 38 µM (inactive). As for `COc1cc(N=Nc2cccc(S(N)(=O)=O)c2)c2ccccc2c1N`, the half-maximal activity concentration (AC50) is 34.1 µM. As to `CC1=NN(Cc2ccccc2)C(=O)C1C(c1ccncc1)C(C#N)C#N` (stereo not given), the AC50 is > 38 µM (inactive). On to `CC(C)(C)c1[nH]nc2c1C(Cc1ccccc1)C(C#N)=C(N)O2` (stereo not given), for which the AC50 is > 38 µM (inactive). As for `CC1CC(C)CN(C(=O)c2ccc3c(c2)N(Cc2ccccc2)CCS3)C1` (stereo not given), the AC50 was 14 µM. The value for `CC1=C(C(=O)OC(C)C)C2(O)C(=O)c3ccccc3C2(O)N1` (stereo not given) was 9.7 µM. Under `CC1=NNC(=O)/C1=C\c1cn(-c2ccccc2)nc1-c1ccccc1` stands 8.49 µM; under `CCN(CCN(C)C)C(=O)c1ccc2c(c1NCCO)C(=O)c1ccccc1C2=O`, > 38 µM (inactive); under `COc1ccc(N2C(=O)CC(N(CCc3ccccc3)C(=O)/C=C/C(=O)O)C2=O)cc1` (stereo not given), > 38 µM (inactive). The value for `CC[n+]1ccc2cc(OC)c(OC)cc2c1Cc1ccc(OC)c(OC)c1` was > 38 µM (inactive); that for `Cc1[nH]nc2c1C(c1ccsc1C)C(C#N)=C(N)O2` (stereo not given) was > 38 µM (inactive); that for `CCCc1c(C)c2c(C)[nH]nc2oc1=O` was > 38 µM (inactive).

On to `O=C1c2cc([N+](=O)[O-])ccc2-c2ncccc21`, for which the AC50 was > 38 µM (inactive). Under `CCCn1c(=O)[nH]c(=O)c2c1nc(-c1ccc(OC(F)F)c(OC)c1)n2CCOC` stands > 38 µM (inactive). On to `Cc1ccccc1NC(=O)C(=Cc1ccc(C(=O)O)cc1)C(=O)Nc1ccccc1C`, for which the AC50 was > 38 µM (inactive).

Take `O=c1[nH]c(/C=C/c2cccnc2)c([N+](=O)[O-])c(=O)[nH]1`: the AC50 is > 38 µM (inactive). Under `CC(C)(C)c1cc[n+](C2=C([O-])c3ccccc3C(=O)/C2=N\S(=O)(=O)c2cccs2)cc1` stands 8.96 µM.

With `COc1ccc2[nH]c(CN3CCC(CO)(CCOc4ccccc4)CC3)c(C)c2c1`, the AC50 was > 38 µM (inactive).

Turning to `COc1cc(/C=C/c2cc[n+](C)cc2)ccc1OCC(=O)Nc1ccc(Cl)c(Cl)c1`, the AC50 was > 38 µM (inactive). Under `O=C(O)COc1ccc(/C=C2/SC(=S)N(Cc3ccccc3)C2=O)cc1` stands 31.6 µM. The value for `O=C1C(Cl)=C(NCC2CCCO2)C(=O)N1c1ccccc1` (stereo not given) was > 38 µM (inactive); that for `COCc1[nH]nc2c1C(c1ccsc1)C(C#N)=C(N)O2` (stereo not given) was 35.3 µM; that for `CCS(=O)(=O)C1=NN2C(=N)/C(=C\c3ccc(OC(=O)c4ccco4)cc3)C(=O)N=C2S1` was > 38 µM (inactive).

Consider `Cc1[nH][nH]c(=O)c1C(c1ccc2c(c1)OCO2)c1c(C)[nH][nH]c1=O`, for which the AC50 was 19 µM. The value for `CCOc1cc(/C=C2/C(=O)N(c3ccccc3)N=C2C)ccc1OC(=O)c1ccco1` was 3.17 µM; that for `O=C(Nc1ccc(Cl)c(Cl)c1)Nc1ccccc1NS(=O)(=O)c1cccs1` was 30.3 µM; that for `O=C(Nc1n[nH]c(C(F)(F)F)n1)c1cccs1` was > 38 µM (inactive).

Turning to `CSc1nc(O)c(Nc2cccc(Cl)c2)c(=O)[nH]1`, the AC50 is > 38 µM (inactive).

For `CCOC(=O)Cc1[nH]nc2c1C(c1ccsc1)C(C#N)=C(N)O2` (stereo not given), the AC50 was > 38 µM (inactive). Under `CN1CCc2nc(SCC(=O)Nc3ccc(F)cc3)c(C#N)cc2C1` stands > 38 µM (inactive); under `CC1=C(C)/C(=N\OC(=O)/C=C/c2ccccc2)C=CC1=O`, > 38 µM (inactive); under `Clc1ccc(CSC(Cn2ccnc2)c2ccc(Cl)cc2Cl)cc1` (stereo not given), 8.47 µM. As for `CC(C)(C)c1ccc(/C=C(\c2nc3ccccc3[nH]2)S(=O)(=O)c2ccccc2)cc1`, the AC50 is 39.1 µM. As to `CCSc1c([N+](=O)[O-])c(=O)n(-c2ccccc2)c2ccccc12`, the AC50 was > 38 µM (inactive). The value for `Cc1ccc(N(C(=O)CCl)C(C(=O)NC2CCCCC2)c2cccnc2)cc1C` (stereo not given) was 1 µM; that for `O=C(Nc1ccc(F)cc1)c1nn(-c2ccccc2)c(=O)cc1Cl` was 22.1 µM.

For `COC(=O)c1sc(-c2ccc(C(C)(C)C)cc2)cc1NC(=O)/C=C/C(=O)O`, the half-maximal activity concentration (AC50) was 5.71 µM.

For `COC(CNC(=O)c1ccc2c3c(onc13)-c1ccccc1C2=O)OC`, the AC50 is > 38 µM (inactive). The value for `Cc1[nH]n(-c2ccccc2)c(=O)c1C(c1ccc(C(=O)O)cc1)c1c(C)[nH]n(-c2ccccc2)c1=O` was 2.11 µM; that for `CN(C)c1ccc(C(=O)n2nnc3ccccc32)cc1` was > 38 µM (inactive).

As to `Cc1c([N+](=O)[O-])cnc(Sc2ccccc2)c1[N+](=O)[O-]`, the half-maximal activity concentration (AC50) was 1.23 µM. Under `O=C(CSC1=NCCS1)Nc1nc(-c2ccccc2)cs1` stands 30.5 µM; under `O=C(O)c1ccc(S(=O)(=O)/N=C2\C=C(Nc3ccccc3F)C(=O)c3ccccc32)cc1`, 0.229 µM; under `N=c1c2c(-c3ccccc3)c(-c3ccccc3)n(Cc3ccco3)c2ncn1Cc1ccco1`, 6.99 µM. Under `Cc1c(-c2nn(C)c(=O)c3ccccc23)oc2ccc(F)cc2c1=O` stands 3 µM.

`COc1cc(/C=N/NC(=O)c2ccc(F)cc2)ccc1OC(=O)c1ccco1`: the AC50 was > 38 µM (inactive). `O=Cc1sc(=O)n(Cc2cccc(C(=O)O)c2)c1Cl`: the AC50 was > 12 µM (inactive). Under `O=C(c1ccc(Cl)cc1)c1c[nH]c(C(=O)C(Cl)(Cl)Cl)c1` stands 16.6 µM. The value for `O=C(CCl)NCc1c(Cl)cccc1-n1cccc1` was 7.58 µM. As to `N#CC1=C(N)Oc2n[nH]c(-c3cccs3)c2C1c1cccnc1` (stereo not given), the AC50 is > 38 µM (inactive).
